How the values were obtained:
[1] = molecular target: T1, Dat (dopamine N-acetyltransferase), wild-type / full-length (Drosophila melanogaster, UniProt Q94521); test: isothermal titration calorimetry; type: binding
[2] = molecular target: T1, Dat (dopamine N-acetyltransferase), wild-type / full-length; test: Ellman's reagent; conditions: read-out: Tryptamine Km; 30 °C, 50 mM sodium phosphate pH 7.2, 500 mM NaCl, 2 mM EDTA, 2 mM AcCoA
[3] = molecular target: Dat (dopamine N-acetyltransferase), wild-type / full-length (Drosophila melanogaster, UniProt Q94521, S217A); test: Ellman's reagent; conditions: read-out: Tryptamine Km; 30 °C, 50 mM sodium phosphate pH 7.2, 500 mM NaCl, 2 mM EDTA, 2 mM AcCoA
Chain of Dat (dopamine N-acetyltransferase), wild-type / full-length (Drosophila melanogaster, UniProt Q94521, S217A) (Q94521 36-275 S217A): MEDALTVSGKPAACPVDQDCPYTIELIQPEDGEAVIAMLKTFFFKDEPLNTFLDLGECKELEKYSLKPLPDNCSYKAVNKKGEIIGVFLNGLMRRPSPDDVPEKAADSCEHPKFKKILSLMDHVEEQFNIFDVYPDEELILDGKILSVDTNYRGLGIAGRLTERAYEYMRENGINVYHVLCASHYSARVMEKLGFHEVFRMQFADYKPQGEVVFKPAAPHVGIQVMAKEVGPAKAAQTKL

[4] = molecular target: Dat (dopamine N-acetyltransferase), wild-type / full-length (Drosophila melanogaster, UniProt Q94521, Y220A); test: Ellman's reagent; conditions: read-out: Tryptamine Km; 30 °C, 50 mM sodium phosphate pH 7.2, 500 mM NaCl, 2 mM EDTA, 2 mM AcCoA
Chain of Dat (dopamine N-acetyltransferase), wild-type / full-length (Drosophila melanogaster, UniProt Q94521, Y220A) (Q94521 36-275 Y220A): as the sequence (Q94521 36-275 S217A) above, with A182S, Y185A counted along it

[5] = molecular target: Dat (dopamine N-acetyltransferase), wild-type / full-length (Drosophila melanogaster, UniProt Q94521, S221A); test: Ellman's reagent; conditions: read-out: Tryptamine Km; 30 °C, 50 mM sodium phosphate pH 7.2, 500 mM NaCl, 2 mM EDTA, 2 mM AcCoA
Chain of Dat (dopamine N-acetyltransferase), wild-type / full-length (Drosophila melanogaster, UniProt Q94521, S221A) (Q94521 36-275 S221A): as the sequence (Q94521 36-275 S217A) above, with A182S, S186A counted along it

[6] = molecular target: Dat (dopamine N-acetyltransferase), wild-type / full-length (Drosophila melanogaster, UniProt Q94521, E82A); test: Ellman's reagent; conditions: read-out: Tryptamine Km; 30 °C, 50 mM sodium phosphate pH 7.2, 500 mM NaCl, 2 mM EDTA, 2 mM AcCoA
Chain of Dat (dopamine N-acetyltransferase), wild-type / full-length (Drosophila melanogaster, UniProt Q94521, E82A) (Q94521 36-275 E82A): as the sequence (Q94521 36-275 S217A) above, with E47A, A182S counted along it

[7] = molecular target: Dat (dopamine N-acetyltransferase), wild-type / full-length (Drosophila melanogaster, UniProt Q94521, Y220F); test: Ellman's reagent; conditions: read-out: Tryptamine Km; 30 °C, 50 mM sodium phosphate pH 7.2, 500 mM NaCl, 2 mM EDTA, 2 mM AcCoA
Chain of Dat (dopamine N-acetyltransferase), wild-type / full-length (Drosophila melanogaster, UniProt Q94521, Y220F) (Q94521 36-275 Y220F): as the sequence (Q94521 36-275 S217A) above, with A182S, Y185F counted along it

T1 sequence (Q94521 36-275): as the sequence (Q94521 36-275 S217A) above, with A182S counted along it

Compound: CC(=O)SCCNC(=O)CCNC(=O)[C@H](O)C(C)(C)COP(=O)(O)OP(=O)(O)OC[C@H]1O[C@@H](n2cnc3c(N)ncnc32)[C@H](O)[C@@H]1OP(=O)(O)O [AcCoA]
- Kd [1]: 5.43 ± 1.09 µM

Compound: NCCc1ccc(O)c(O)c1 [dopamine]
- Kd [1]: 25.9 ± 2.5 µM

Compound: NCCc1c[nH]c2ccc(O)cc12 [serotonin]
- Kd [1]: 223 µM

Compound: NCCc1c[nH]c2ccccc12 [tryptamine]
- Km [2]: 470 ± 90 µM
- Km [3]: 650 ± 90 µM
- Km [4]: 490 ± 70 µM
- Km [5]: 550 ± 70 µM
- Km [6]: 1200 ± 100 µM
- Km [7]: 470 ± 80 µM

Source: article PMC3429931 (Biochemical Journal, 2012)
